Legend:
E. coli UT189 [1] = experiment: Tissue culture-based microbial inhibition assay, intracellular E. coli infection of bladder epithelial cells; format: cell-based, Escherichia coli; details: cultured bladder epithelial cells
Experimental: FIGS. 3A-D show PRINT-Levofloxacin provides prolonged protection against intracellular E. coli infection. UROTSA bladder epithelial cell monolayers were incubated with media, free levofloxacin (FREE LEVO), blank PRINT particles (BLANK PRINT), or a formulation of PRINT encapsulated levofloxacin (PRINT-LEVO) for 1 hour. Each treatment was removed, the cells were washed, and the cells were immediately infected with E. coli UT189 (FIG. 3A), 8 hours later (FIG. 3B), or 18 hours later (FIG. 3C). After 1 hour of infection with E. coli, the medium was replaced with medium containing gentamicin to eliminate extracellular bacteria. Viable bacteria in the bladder epithelial cells were enumerated 24 hours later. The formulations and associated sizes and charges are shown for reference (FIG. 3D). Tissue culture-based microbial inhibition assays-Bladder epithelial cell lines 5637 and UROTSA have been previously described. Tissue culture cells were growth in RPMI 1640 media to 80% confluence and lifted using trypsin-EDTA (Sigma-Aldrich). Twenty four well plates (Genesee Scientific) were seeded with 5637 cells and grown for 2 days at 37° C., 5% CO2 prior to infections. Where appropriate to the assay conditions, unencapsulated (“free”) levofloxacin was added to the wells one hour prior to infection and at the same concentration as wells treated with PRINT-levofloxacin particles. […]

E. coli UT189 [2] = experiment: Rat spinal cord injury UTI infection model; format: in vivo, Escherichia coli; details: female SCI rats, single intracystic dose, drained after 1 hour, infected 8 hours later, bladder and kidney
Experimental: FIGS. 6A-C show PRINT-LEVO provides sustained protection against E. coli UTI in the SCI rat. Female SCI rats were treated by transurethral catheterization and instillation of a volume equivalent to their previously determined residual urine volume containing PBS, PBS with free levofloxacin (5 μg/ml), PRINT-LEVO (formula D5), or BLANK PRINT particles (wt/vol equivalent to PRINT-LEVO). After 1 hour of treatment, all animals had their bladder creded to remove each treatment. The animals were infected with E. coli at increasing time intervals following the administration and drainage of the test or control agents from the bladder: 4 hours (FIG. 6A), 8 hours (FIG. 6B), or 18 hours (FIG. 6C). Bacteria were counted in the bladders and kidneys 24 hours after infection with E. coli by tissue homogenization and plating of dilutions on solid agar medium. Horizontal bars indicate the geometric means.
As described previously, female Sprague-Dawley rats (Harlan; 175-200 gm) underwent controlled surgical T10 spinal cord transection to model spinal cord injury and produce a neurogenic bladder phenotype. […] Due to the spinal cord injury and subsequent neurogenic bladder phenotypes, animals were routinely monitored and creded to relieve urinary retention each 12 hours. […]

**Q.** Which “time to loss of significant effectiveness after a single dose” value (E. coli UT189 [1]) does the source give for `C[C@H]1COc2c(N3CCN(C)CC3)c(F)cc3c(=O)c(C(=O)O)cn1c23` [free levofloxacin, levofloxacin] here?
**A.** ≤ 1 h

**Q.** And the “protection against E. coli infection (animals infection-free), 8 hour delay” value (E. coli UT189 [2])?
**A.** 12.5%
